Experimental data from patent US10881599B2, “Whitening composition including novel kaempferol-based compound derived from post-fermented tea” (AMOREPACIFIC CORPORATION, priority 2017, dated 2021).

Legend:
Mel-Ab cell line = assay: Melanin production-inhibitory effect (Dooley's method); type: cell-based, C57BL/6; conditions: Mel-Ab cells, melanin after 5 days, absorbance at 400 nm
mushroom tyrosinase = assay: Tyrosinase activity-inhibitory effect; type: biochemical; conditions: L-tyrosine, 20 minutes at 37° C., absorbance at 490 nm
Description: The tyrosinase activity-inhibitory effect of new material 33 was evaluated. Specifically, tyrosinase and tyrosine derived from mushrooms were obtained from Sigma Chemical. […] Tyrosinase activity was assessed by measuring the absorbance at 490 nm using a microplate reader (Bio-Rad 3550, Richmond, Calif., U.S.A.) after an enzyme reaction for 20 minutes at 37° C.

skin = assay: Human repeated insult patch test (HRIPT), skin accumulation stimulation; type: in vivo; set-up: key to Skin reactivity (ICDRG criteria): −: negative (no response); ±: doubtful or slight erythema, etc.; +: weak reaction (which is accompanied with no phlyctenule), erythema, papule; ++: severe reaction (which is accompanied with phlyctenule), erythema, papule, phlyctenule; +++: strong reaction, bullae reaction; conditions: for Number of subjects with ±, +, or ++ reactivity, 1st: 1st patch; for Number of subjects with ±, +, or ++ reactivity, 2nd: 2nd patch; for Number of subjects with ±, +, or ++ reactivity, 3rd: 3rd patch; for Number of subjects with ±, +, or ++ reactivity, 4th: 4th patch; for Number of subjects with ±, +, or ++ reactivity, 5th: 5th patch; for Number of subjects with ±, +, or ++ reactivity, 6th: 6th patch; for Number of subjects with ±, +, or ++ reactivity, 7th: 7th patch; for Number of subjects with ±, +, or ++ reactivity, 8th: 8th patch; for Average reactivity: 9 patches, 15 subjects, less than 3 is considered stable; for Number of subjects with ±, +, or ++ reactivity, 9th: 9th patch
Description: Human repeated insult patch tests (HRIPT) were performed to confirm the skin accumulation stimulation of the kaempferol3-O-[2-O″-(E)-p-coumaroyl][beta-D-glucopyranosyl-(1→3)-O-alpha-L-rhamnopyranosyl-(1→6)-O-beta-D-glucopyranoside] and to calculate the concentration range available for the skin.
Specifically, 15 healthy adult subjects were randomly selected, and the test composition (the skin composition including an emulsifier, a stabilizer, purified water, etc. in addition to the compound) containing 0.5 wt %, 1 wt %, and 3 wt % of the compound was added dropwise by 20 μl per chamber (IQ chamber, Epitest Ltd, Finland). After 24 hours from patching the upper right part of the back of a subject, it was replaced with the new patch. A total of 9 patches were conducted, three times a week for total 3 weeks, in such manner, the skin reactions before and after patch were examined every time, and the skin reactions until 48 hours after removing the final patch were observed, and the average reactivity was observed.
The skin response was determined according to the criteria of the International Contact Dermatitis Research Group (ICDRG). ‘New material 33’ in the table above is kaempferol3-O-[2-O″-(E)-p-coumaroyl][beta-D-glucopyranosyl-(1→3)-O-alpha-L-rhamnopyranosyl-(1→6)-O-beta-D-glucopyranoside].

For `O=c1cc(CO)occ1O` [Kojic acid, reference compound], the “Melanin production-inhibitory effect IC50” value (Mel-Ab cell line) was 39.36 ppm.

`C[C@@H]1O[C@@H](OC[C@H]2O[C@@H](Oc3c(-c4ccc(O)cc4)oc4cc(O)cc(O)c4c3=O)[C@H](OC(=O)/C=C/c3ccc(O)cc3)[C@@H](O)[C@@H]2O)[C@H](O)[C@H](O[C@@H]2O[C@H](CO)[C@@H](O)[C@H](O)[C@H]2O)[C@H]1O` [new material 33, kaempferol3-O-[2-O″-(E)-p-coumaroyl][beta-D-glucopyranosyl-(1→3)-O-alpha-L-rhamnopyranosyl-(1→6)-O-beta-D-glucopyranoside]] was tested, and the “Melanin production-inhibitory effect IC50” value (Mel-Ab cell line) was 15.7 ppm, the “Tyrosinase activity-inhibitory effect IC50” value (mushroom tyrosinase) was 11 ppm and the “Skin reactivity (ICDRG criteria)” value (skin; 0.5 wt %, 1 wt % and 3 wt %, all subjects, all patches) was “−”. The “Number of subjects with ±, +, or ++ reactivity, 1st” value (shortened to “Number of subjects with ±, + … 1st”) (skin; 0.5 wt %, line 1 of 3 (±)) was 0 person, the “Number of subjects with ±, + … 1st” value (skin; 0.5 wt %, line 2 of 3 (+)) was 0 person and the “Number of subjects with ±, + … 1st” value (skin; 0.5 wt %, line 3 of 3 (++)) was 0 person. For the same compound, the “Number of subjects with ±, +, or ++ reactivity, 2nd” value (from here on “Number of subjects with ±, + … 2nd”) (skin; 0.5 wt %, line 1 of 3 (±)) was 0 person, the “Number of subjects with ±, + … 2nd” value (skin; 0.5 wt %, line 2 of 3 (+)) was 0 person and the “Number of subjects with ±, + … 2nd” value (skin; 0.5 wt %, line 3 of 3 (++)) was 0 person. The “Number of subjects with ±, +, or ++ reactivity, 3rd” value (“Number of subjects with ±, + … 3rd” for short) (skin; 0.5 wt %, line 1 of 3 (±)) was 0 person, the “Number of subjects with ±, + … 3rd” value (skin; 0.5 wt %, line 2 of 3 (+)) was 0 person and the “Number of subjects with ±, + … 3rd” value (skin; 0.5 wt %, line 3 of 3 (++)) was 0 person. For the same compound, the “Number of subjects with ±, +, or ++ reactivity, 4th” value (“Number of subjects with ±, + … 4th” for short) (skin; 0.5 wt %, line 1 of 3 (±)) was 0 person, the “Number of subjects with ±, + … 4th” value (skin; 0.5 wt %, line 2 of 3 (+)) was 0 person and the “Number of subjects with ±, + … 4th” value (skin; 0.5 wt %, line 3 of 3 (++)) was 0 person. For the same compound, the “Number of subjects with ±, +, or ++ reactivity, 5th” value (“Number of subjects with ±, + … 5th” for short) (skin; 0.5 wt %, line 1 of 3 (±)) was 0 person, the “Number of subjects with ±, + … 5th” value (skin; 0.5 wt %, line 2 of 3 (+)) was 0 person and the “Number of subjects with ±, + … 5th” value (skin; 0.5 wt %, line 3 of 3 (++)) was 0 person. For the same compound, the “Number of subjects with ±, +, or ++ reactivity, 6th” value (“Number of subjects with ±, + … 6th” for short) (skin; 0.5 wt %, line 1 of 3 (±)) was 0 person, the “Number of subjects with ±, + … 6th” value (skin; 0.5 wt %, line 2 of 3 (+)) was 0 person and the “Number of subjects with ±, + … 6th” value (skin; 0.5 wt %, line 3 of 3 (++)) was 0 person. For the same compound, the “Number of subjects with ±, +, or ++ reactivity, 7th” value (“Number of subjects with ±, + … 7th” for short) (skin; 0.5 wt %, line 1 of 3 (±)) was 0 person, the “Number of subjects with ±, + … 7th” value (skin; 0.5 wt %, line 2 of 3 (+)) was 0 person and the “Number of subjects with ±, + … 7th” value (skin; 0.5 wt %, line 3 of 3 (++)) was 0 person. For the same compound, the “Number of subjects with ±, +, or ++ reactivity, 8th” value (“Number of subjects with ±, + … 8th” for short) (skin; 0.5 wt %, line 1 of 3 (±)) was 0 person, the “Number of subjects with ±, + … 8th” value (skin; 0.5 wt %, line 2 of 3 (+)) was 0 person and the “Number of subjects with ±, + … 8th” value (skin; 0.5 wt %, line 3 of 3 (++)) was 0 person. For the same compound, the Average reactivity (skin; 0.5 wt %) was 0, the “Number of subjects with ±, +, or ++ reactivity, 9th” value (“Number of subjects with ±, + … 9th” for short) (skin; 0.5 wt %, line 1 of 3 (±)) was 0 person and the “Number of subjects with ±, + … 9th” value (skin; 0.5 wt %, line 2 of 3 (+)) was 0 person. For the same compound, the “Number of subjects with ±, + … 9th” value (skin; 0.5 wt %, line 3 of 3 (++)) was 0 person, the “Number of subjects with ±, + … 1st” value (skin; 1 wt %, line 1 of 3 (±)) was 0 person and the “Number of subjects with ±, + … 1st” value (skin; 1 wt %, line 2 of 3 (+)) was 0 person. The “Number of subjects with ±, + … 1st” value (skin; 1 wt %, line 3 of 3 (++)) was 0 person, the “Number of subjects with ±, + … 2nd” value (skin; 1 wt %, line 1 of 3 (±)) was 0 person and the “Number of subjects with ±, + … 2nd” value (skin; 1 wt %, line 2 of 3 (+)) was 0 person. For the same compound, the “Number of subjects with ±, + … 2nd” value (skin; 1 wt %, line 3 of 3 (++)) was 0 person, the “Number of subjects with ±, + … 3rd” value (skin; 1 wt %, line 1 of 3 (±)) was 0 person and the “Number of subjects with ±, + … 3rd” value (skin; 1 wt %, line 2 of 3 (+)) was 0 person. The “Number of subjects with ±, + … 3rd” value (skin; 1 wt %, line 3 of 3 (++)) was 0 person, the “Number of subjects with ±, + … 4th” value (skin; 1 wt %, line 1 of 3 (±)) was 0 person and the “Number of subjects with ±, + … 4th” value (skin; 1 wt %, line 2 of 3 (+)) was 0 person. For the same compound, the “Number of subjects with ±, + … 4th” value (skin; 1 wt %, line 3 of 3 (++)) was 0 person, the “Number of subjects with ±, + … 5th” value (skin; 1 wt %, line 1 of 3 (±)) was 0 person and the “Number of subjects with ±, + … 5th” value (skin; 1 wt %, line 2 of 3 (+)) was 0 person. The “Number of subjects with ±, + … 5th” value (skin; 1 wt %, line 3 of 3 (++)) was 0 person, the “Number of subjects with ±, + … 6th” value (skin; 1 wt %, line 1 of 3 (±)) was 0 person and the “Number of subjects with ±, + … 6th” value (skin; 1 wt %, line 2 of 3 (+)) was 0 person. For the same compound, the “Number of subjects with ±, + … 6th” value (skin; 1 wt %, line 3 of 3 (++)) was 0 person, the “Number of subjects with ±, + … 7th” value (skin; 1 wt %, line 1 of 3 (±)) was 0 person and the “Number of subjects with ±, + … 7th” value (skin; 1 wt %, line 2 of 3 (+)) was 0 person. The “Number of subjects with ±, + … 7th” value (skin; 1 wt %, line 3 of 3 (++)) was 0 person, the “Number of subjects with ±, + … 8th” value (skin; 1 wt %, line 1 of 3 (±)) was 0 person and the “Number of subjects with ±, + … 8th” value (skin; 1 wt %, line 2 of 3 (+)) was 0 person. For the same compound, the “Number of subjects with ±, + … 8th” value (skin; 1 wt %, line 3 of 3 (++)) was 0 person, the Average reactivity (skin; 1 wt %) was 0 and the “Number of subjects with ±, + … 9th” value (skin; 1 wt %, line 1 of 3 (±)) was 0 person. For the same compound, the “Number of subjects with ±, + … 9th” value (skin; 1 wt %, line 2 of 3 (+)) was 0 person, the “Number of subjects with ±, + … 9th” value (skin; 1 wt %, line 3 of 3 (++)) was 0 person and the “Number of subjects with ±, + … 1st” value (skin; 3 wt %, line 1 of 3 (±)) was 0 person. The “Number of subjects with ±, + … 1st” value (skin; 3 wt %, line 2 of 3 (+)) was 0 person, the “Number of subjects with ±, + … 1st” value (skin; 3 wt %, line 3 of 3 (++)) was 0 person and the “Number of subjects with ±, + … 2nd” value (skin; 3 wt %, line 1 of 3 (±)) was 0 person. For the same compound, the “Number of subjects with ±, + … 2nd” value (skin; 3 wt %, line 2 of 3 (+)) was 0 person, the “Number of subjects with ±, + … 2nd” value (skin; 3 wt %, line 3 of 3 (++)) was 0 person and the “Number of subjects with ±, + … 3rd” value (skin; 3 wt %, line 1 of 3 (±)) was 0 person. For the same compound, the “Number of subjects with ±, + … 3rd” value (skin; 3 wt %, line 2 of 3 (+)) was 0 person, the “Number of subjects with ±, + … 3rd” value (skin; 3 wt %, line 3 of 3 (++)) was 0 person and the “Number of subjects with ±, + … 4th” value (skin; 3 wt %, line 1 of 3 (±)) was 0 person. For the same compound, the “Number of subjects with ±, + … 4th” value (skin; 3 wt %, line 2 of 3 (+)) was 0 person, the “Number of subjects with ±, + … 4th” value (skin; 3 wt %, line 3 of 3 (++)) was 0 person and the “Number of subjects with ±, + … 5th” value (skin; 3 wt %, line 1 of 3 (±)) was 0 person. The “Number of subjects with ±, + … 5th” value (skin; 3 wt %, line 2 of 3 (+)) was 0 person, the “Number of subjects with ±, + … 5th” value (skin; 3 wt %, line 3 of 3 (++)) was 0 person and the “Number of subjects with ±, + … 6th” value (skin; 3 wt %, line 1 of 3 (±)) was 0 person. The “Number of subjects with ±, + … 6th” value (skin; 3 wt %, line 2 of 3 (+)) was 0 person, the “Number of subjects with ±, + … 6th” value (skin; 3 wt %, line 3 of 3 (++)) was 0 person and the “Number of subjects with ±, + … 7th” value (skin; 3 wt %, line 1 of 3 (±)) was 0 person. The “Number of subjects with ±, + … 7th” value (skin; 3 wt %, line 2 of 3 (+)) was 0 person, the “Number of subjects with ±, + … 7th” value (skin; 3 wt %, line 3 of 3 (++)) was 0 person and the “Number of subjects with ±, + … 8th” value (skin; 3 wt %, line 1 of 3 (±)) was 0 person. For the same compound, the “Number of subjects with ±, + … 8th” value (skin; 3 wt %, line 2 of 3 (+)) was 0 person, the “Number of subjects with ±, + … 8th” value (skin; 3 wt %, line 3 of 3 (++)) was 0 person and the Average reactivity (skin; 3 wt %) was 0. For the same compound, the “Number of subjects with ±, + … 9th” value (skin; 3 wt %, line 1 of 3 (±)) was 0 person, the “Number of subjects with ±, + … 9th” value (skin; 3 wt %, line 2 of 3 (+)) was 0 person and the “Number of subjects with ±, + … 9th” value (skin; 3 wt %, line 3 of 3 (++)) was 0 person.

`OC[C@H]1O[C@@H](Oc2ccc(O)cc2)[C@H](O)[C@@H](O)[C@@H]1O` [Arbutin, reference compound] was tested, and the “Tyrosinase activity-inhibitory effect IC50” value (mushroom tyrosinase) was 149 ppm.
